# Measurements as given in US11390616B2 (BRISTOL-MYERS SQUIBB COMPANY, priority 2015, dated 2022).
# Molecular target: T1, human APJ receptor (Homo sapiens, UniProt P35414)
# T1 construct: expressed in transfected cells; host or cells: HEK293
# T1 sequence (P35414 1-380): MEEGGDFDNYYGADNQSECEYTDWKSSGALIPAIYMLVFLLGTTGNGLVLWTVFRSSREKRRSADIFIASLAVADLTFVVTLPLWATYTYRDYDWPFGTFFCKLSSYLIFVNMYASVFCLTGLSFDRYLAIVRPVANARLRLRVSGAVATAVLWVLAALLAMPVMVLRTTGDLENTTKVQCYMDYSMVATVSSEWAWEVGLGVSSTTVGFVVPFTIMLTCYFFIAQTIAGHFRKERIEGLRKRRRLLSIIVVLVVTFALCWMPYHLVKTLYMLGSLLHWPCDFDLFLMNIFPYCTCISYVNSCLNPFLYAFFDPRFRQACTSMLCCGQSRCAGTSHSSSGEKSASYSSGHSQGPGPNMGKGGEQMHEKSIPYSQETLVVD
# Test: Intracellular cAMP accumulation assay (APJ hcAMP, HTRF)
# Type: cell-based
# Settings: HEK293 cells stably expressing human APJ receptor; inhibition of forskolin-mediated cAMP production; read-out: APJ cAMP Potency range
# Description: Intracellular cAMP Accumulation Assay
# HEK293 cells stably expressing human APJ receptor were used to assess the activity of compounds. Cultured cells were detached and resuspended in the cAMP Homogeneous Time-Resolved Fluorescence (HTRF) assay buffer (Cisbio cat; #62AM4PEJ). The assay was performed in 384-well assay plates (Perkin-Elmer; cat #6008289) according to assay protocol provided by the manufacturer. Serial dilutions of a compound together with assay buffer containing […] IBMX and 2 μM forskolin were added to each well containing 5,000 cells and incubated for 30 minutes at room temperature. Subsequently, cAMP D2 reagent was added in the lysis buffer followed by the EuK antibody (Cisbio; cat #62AM4PEJ) and incubated for 60 min. The fluorescence emission ratio was measured using fluorometer. The intracellular cAMP concentrations (compound-stimulated inhibition of forskolin-mediated cAMP production) were calculated by extrapolation from a standard curve using known cAMP concentrations. The EC50 values were obtained by fitting the data to a sigmoidal concentration-response curve with variable slope. The maximal achievable inhibition of forskolin-induced cAMP levels (Ymax) for each compound was expressed as relative percentage of inhibition attained using pyroglutamated apelin-13 ((Pyr1)apelin-13) peptide, which was set to 100%.
# The examples disclosed below were tested in the APJ in vitro assays described above and were found having human APJ cyclic AMP (hcAMP) activity. The EC50 value of each compound is presented at the end of the example description.
# The biological activity of the exemplified compounds of this invention determined by the assay described above is shown at the end of each example.
row,EC50,Compound
1,10 to 100 nM,"CCCCc1nc(O)c(Cc2ccc(OC)cc2)c(=O)n1-c1c(OC)cccc1OC [Example 2, 2-butyl-3-(2,6-dimethoxyphenyl)-6-hydroxy-5-[(4-methoxyphenyl)methyl]-3,4-dihydropyrimidin-4-one]"
2,0.01 to 10 nM,"CCCCc1nc(O)c(Cc2ccc(-c3ncon3)cc2F)c(=O)n1-c1c(OC)cccc1OC [Example 6, 2-butyl-3-(2,6-dimethoxyphenyl)-5-{[2-fluoro-4-(1,2,4-oxadiazol-3-yl)phenyl]methyl}-6-hydroxy-3,4-dihydropyrimidin-4-one]"
3,10 to 100 nM,"CCCCc1nc(O)c(Cc2cc(C)on2)c(=O)n1-c1c(OC)cccc1OC [Example 8, 2-butyl-3-(2,6-dimethoxyphenyl)-6-hydroxy-5-[(5-methyl-1,2-oxazol-3-yl)methyl]-3,4-dihydropyrimidin-4-one]"
4,0.01 to 10 nM,"CCCCc1nc(O)c(Cc2ccc(-c3nc(C)no3)cc2)c(=O)n1-c1c(OC)cccc1OC [Example 10, 2-butyl-3-(2,6-dimethoxyphenyl)-6-hydroxy-5-{[4-(3-methyl-1,2,4-oxadiazol-5-yl)phenyl]methyl}-3,4-dihydropyrimidin-4-one]"
5,0.01 to 10 nM,"CCCCc1nc(O)c(Cc2coc(-c3ccc(Cl)cc3)n2)c(=O)n1-c1c(OC)cccc1OC [Example 11, 2-butyl-5-{[2-(4-chlorophenyl)-1,3-oxazol-4-yl]methyl}-3-(2,6-dimethoxyphenyl)-6-hydroxy-3,4-dihydropyrimidin-4-one]"
6,0.01 to 10 nM,"CCCCc1nc(O)c(Cc2ccc(-c3csnn3)cc2)c(=O)n1-c1c(OC)cccc1OC [Example 12, 2-butyl-3-(2,6-dimethoxyphenyl)-6-hydroxy-5-{[4-(1,2,3-thiadiazol-4-yl)phenyl]methyl}-3,4-dihydropyrimidin-4-one]"
7,0.01 to 10 nM,"CCCCc1nc(O)c(Cc2ccc(-c3ncon3)c(F)c2)c(=O)n1-c1c(OC)cccc1OC [Example 13, 2-butyl-3-(2,6-dimethoxyphenyl)-5-{[3-fluoro-4-(1,2,4-oxadiazol-3-yl)phenyl]methyl}-6-hydroxy-3,4-dihydropyrimidin-4-one]"
8,0.01 to 10 nM,"CCCCc1nc(O)c(Cc2ccc(-c3ccc(Cl)cc3)nc2)c(=O)n1-c1c(OC)cccc1OC [Example 14, 2-butyl-5-{[6-(4-chlorophenyl)pyridin-3-yl]methyl}-3-(2,6-dimethoxyphenyl)-6-hydroxy-3,4-dihydropyrimidin-4-one]"
9,10 to 100 nM,"CCCCc1nc(O)c(Cc2ccc(C(=O)NCC)cc2)c(=O)n1-c1c(OC)cccc1OC [Example 15, 4-{[2-butyl-1-(2,6-dimethoxyphenyl)-4-hydroxy-6-oxo-1,6-dihydropyrimidin-5-yl]methyl}-N-ethylbenzamide]"
10,0.01 to 10 nM,"CCCCc1nc(O)c(Cc2nc(-c3ccc(C(F)(F)F)cc3)no2)c(=O)n1-c1c(OC)cccc1OC [Example 20, 2-butyl-3-(2,6-dimethoxyphenyl)-6-hydroxy-5-({3-[4-(trifluoromethyl)phenyl]-1,2,4-oxadiazol-5-yl}methyl)-3,4-dihydropyrimidin-4-one]"
11,10 to 100 nM,"COc1cccc(OC)c1-n1c(CCC(C)C)nc(O)c(Cc2nnc(-c3ccc(C)cc3)o2)c1=O [Example 21, 3-(2,6-dimethoxyphenyl)-6-hydroxy-2-(3-methylbutyl)-5-{[5-(4-methylphenyl)-1,3,4-oxadiazol-2-yl]methyl}-3,4-dihydropyrimidin-4-one]"
12,10 to 100 nM,"CCCCc1nc(O)c(Cc2csc(-c3ccc(Cl)cc3)n2)c(=O)n1-c1c(OC)cccc1OC [Example 22, 2-butyl-5-{[2-(4-chlorophenyl)-1,3-thiazol-4-yl]methyl}-3-(2,6-dimethoxyphenyl)-6-hydroxy-3,4-dihydropyrimidin-4-one]"
13,10 to 100 nM,"CCCCc1nc(O)c(Cc2csc(-c3ccc(C)cc3)n2)c(=O)n1-c1c(OC)cccc1OC [Example 23, 2-butyl-3-(2,6-dimethoxyphenyl)-6-hydroxy-5-{[2-(4-methylphenyl)-1,3-thiazol-4-yl]methyl}-3,4-dihydropyrimidin-4-one]"
14,0.01 to 10 nM,"CCCCc1nc(O)c(Cc2cnn(-c3ccc(C)cc3)c2)c(=O)n1-c1c(OC)cccc1OC [Example 25, 2-butyl-3-(2,6-dimethoxyphenyl)-6-hydroxy-5-{[1-(4-methylphenyl)-1H-pyrazol-4-yl]methyl}-3,4-dihydropyrimidin-4-one]"
15,0.01 to 10 nM,"CCCCc1nc(O)c(Cc2cnc(-c3ccc(Cl)cc3)s2)c(=O)n1-c1c(OC)cccc1OC [Example 26, 2-butyl-5-{[2-(4-chlorophenyl)-1,3-thiazol-5-yl]methyl}-3-(2,6-dimethoxyphenyl)-6-hydroxy-3,4-dihydropyrimidin-4-one]"

# The remaining lines, values behind:
row,Compound,EC50
1,"CCCCc1nc(O)c(Cc2ccc(OC)cc2)c(=O)n1-c1ccccc1OC [Example 3, 2-butyl-6-hydroxy-3-(2-methoxyphenyl)-5-[(4-methoxyphenyl)methyl]-3,4-dihydropyrimidin-4-one]",100 to 300 nM
2,"CCCCc1nc(O)c(Cc2ccc(-n3cccn3)cc2)c(=O)n1-c1c(OC)cccc1OC [Example 5, 2-butyl-3-(2,6-dimethoxyphenyl)-6-hydroxy-5-{[4-(1H-pyrazol-1-yl)phenyl]methyl}-3,4-dihydropyrimidin-4-one]",0.01 to 10 nM
3,"CCCCc1nc(O)c(Cc2ccc(S(C)(=O)=O)cc2)c(=O)n1-c1c(OC)cccc1OC [Example 7, 2-butyl-3-(2,6-dimethoxyphenyl)-6-hydroxy-5-[(4-methanesulfonylphenyl)methyl]-3,4-dihydropyrimidin-4-one]",10 to 100 nM
4,"CCCCc1nc(O)c(Cc2ccc(NC(C)=O)cc2)c(=O)n1-c1c(OC)cccc1OC [Example 9, N-(4-{[2-butyl-1-(2,6-dimethoxyphenyl)-4-hydroxy-6-oxo-1,6-dihydropyrimidin-5-yl]methyl}phenyl)acetamide]",10 to 100 nM
5,"COc1cccc(OC)c1-n1c(CCC(C)C)nc(O)c(Cc2ccc(NC(C)=O)cc2)c1=O [Example 16, N-(4-{[1-(2,6-dimethoxyphenyl)-4-hydroxy-2-(3-methylbutyl)-6-oxo-1,6-dihydropyrimidin-5-yl]methyl}phenyl)acetamide]",10 to 100 nM
6,"COc1cccc(OC)c1-n1c(CCC(C)C)nc(O)c(Cc2ccc(-c3ncon3)cc2)c1=O [Example 17, 3-(2,6-dimethoxyphenyl)-6-hydroxy-2-(3-methylbutyl)-5-{[4-(1,2,4-oxadiazol-3-yl)phenyl]methyl}-3,4-dihydropyrimidin-4-one]",10 to 100 nM
7,"COc1cccc(OC)c1-n1c(CCC(C)C)nc(O)c(Cc2coc(-c3ccc(Cl)cc3)n2)c1=O [Example 18, 5-{[2-(4-chlorophenyl)-1,3-oxazol-4-yl]methyl}-3-(2,6-dimethoxyphenyl)-6-hydroxy-2-(3-methylbutyl)-3,4-dihydropyrimidin-4-one]",10 to 100 nM
8,"CCCCc1nc(O)c(Cc2ccccc2)c(=O)n1-c1c(OC)cccc1OC [Example 19, 5-benzyl-2-butyl-3-(2,6-dimethoxyphenyl)-6-hydroxy-3,4-dihydropyrimidin-4-one]",10 to 100 nM
9,"CCCCc1nc(O)c(Cc2ccn(-c3ccc(Cl)cc3)n2)c(=O)n1-c1c(OC)cccc1OC [Example 24, 2-butyl-5-{[1-(4-chlorophenyl)-1H-pyrazol-3-yl]methyl}-3-(2,6-dimethoxyphenyl)-6-hydroxy-3,4-dihydropyrimidin-4-one]",0.01 to 10 nM
10,"CCCCc1nc(O)c(Cc2ccc(Cn3cccn3)cc2)c(=O)n1-c1c(OC)cccc1OC [Example 27, 2-butyl-3-(2,6-dimethoxyphenyl)-6-hydroxy-5-{[4-(1H-pyrazol-1-ylmethyl)phenyl]methyl}-3,4-dihydropyrimidin-4-one]",0.01 to 10 nM
11,"CCCCc1nc(O)c(Cc2ccc(-n3ccccc3=O)cc2)c(=O)n1-c1c(OC)cccc1OC [Example 28, 2-butyl-3-(2,6-dimethoxyphenyl)-6-hydroxy-5-{[4-(2-oxo-1,2-dihydropyridin-1-yl)phenyl]methyl}-3,4-dihydropyrimidin-4-one]",0.01 to 10 nM

# Same assay, conditions: HEK293 cells stably expressing human APJ receptor; inhibition of forskolin-mediated cAMP production; read-out: Human APJ cAMP EC50 potency range
row,EC50,Compound
1,10 to 100 nM,"CCCCc1nc(=O)c(Cc2ccc(Br)cc2)c(O)n1[C@@H](CC)c1cccc(C#N)c1 [Compound 95i, (S)-3-(1-(5-(4-bromobenzyl)-2-butyl-6-hydroxy-4-oxopyrimidin-1(4H)-yl)propyl)benzonitrile]"
2,100 to 300 nM,CCOCc1nc(O)c(Cc2ccc(-n3ccccc3=O)cc2)c(=O)n1-c1c(OC)cccc1OC [Example 1]
